Values of other authors in patent US20080188553A1, “NOVEL ASCORBIC ACID COMPOUNDS, METHODS OF SYNTHESIS AND APPLICATION USE THEREOF” (priority 2007, published 2008).

Details: relative to ascorbic acid; test conditions not given

SMILES: O=C1O[C@H]([C@@H](O)CO)C(O)=C1OS(=O)(=O)O [L-ascorbate 2-sulphate]
- more stable than ascorbic acid: 20 times
